Consider seven compounds from PubChem BioAssay (NCI).

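Values below derive from 48-hour exposures of cells grown in 96-well plates, with endpoints linearly interpolated between the two concentrations bracketing the appropriate inhibition level. At the TGI there is no net growth.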 Some results are limits rather than exact numbers.

Test systems include MDA-MB-435; SNB-75 CNS; COLO 205 colon; EKVX NSCLC; SK-MEL-5 melanoma; OVCAR-4 ovarian; A498 renal; MOLT-4 leukemia; SF-539 CNS; UO-31 renal; HCC-2998 colon; DU-145 prostate; NCI-H226 lung; ACHN renal; PC-3 prostate; M14 melanoma; SK-MEL-2 melanoma; SW-620 colon; SR leukemia.
What all share (test): NCI-60 cell line screen, 48 h

For the compound `CCCCCCCCCCCCCCCCOc1ccc(/C=C/C2=[N+](CCCl)CCO2)cc1`, the TGI in the assay with MDA-MB-435, in the assay with SNB-75 CNS, in the assay with COLO 205 colon, in the assay on EKVX NSCLC, in the assay on SK-MEL-5 melanoma and in the assay on OVCAR-4 ovarian was greater than 100 µM in each case. Further, the TGI in the assay on A498 renal, in the assay with MOLT-4 leukemia, in the assay with SF-539 CNS, in the assay on UO-31 renal, with HCC-2998 colon and in the assay with DU-145 prostate was greater than 100 µM in each case. Besides, the TGI in the assay on NCI-H226 lung, with ACHN renal, in the assay on PC-3 prostate, in the assay with M14 melanoma, in the assay with SK-MEL-2 melanoma and in the assay on SW-620 colon was greater than 100 µM throughout. For the same compound, the TGI with SR leukemia stood at 92.5 µM.
In the case of `CC1CC(C(=O)OC2OC(COC3OC(CO)C(OC4OC(C)C(O)C(O)C4O)C(O)C3O)C(O)C(O)C2O)C2CCC3(C)C(=CCC4(C)C3CCC3C(C)(CO)C(O)C(O)CC34C)C2C1C` (stereo unspecified), the TGI was 34.5 µM in the assay on MDA-MB-435; 32.5 µM in the assay with SNB-75 CNS; 32.7 µM in the assay with COLO 205 colon; greater than 10 µM in the assay on EKVX NSCLC; 33 µM in the assay on SK-MEL-5 melanoma; 37.3 µM with OVCAR-4 ovarian. Further, the TGI in the assay with A498 renal is greater than 10 µM; in the assay on MOLT-4 leukemia, 41.4 µM; in the assay on SF-539 CNS, 38 µM; in the assay with UO-31 renal it was greater than 100 µM; in the assay with HCC-2998 colon it was 40.8 µM; in the assay with DU-145 prostate, greater than 100 µM. Further, the TGI with NCI-H226 lung was 80.1 µM; with ACHN renal, greater than 10 µM; in the assay with PC-3 prostate, 84.6 µM; in the assay on M14 melanoma it was greater than 100 µM; in the assay on SK-MEL-2 melanoma, 42.2 µM; in the assay on SW-620 colon, 88.3 µM. The compound further yielded a TGI in the assay on SR leukemia of 41 µM.
With `CC(=O)OC1OC(c2ccoc2)C[C@@]12C1CCC3O[C@]3(C)[C@]1(C)C[C@H](OC(C)=O)[C@H]2C` (stereo partly specified), the TGI with MDA-MB-435, in the assay with SNB-75 CNS, with COLO 205 colon, in the assay with EKVX NSCLC, in the assay on SK-MEL-5 melanoma and in the assay with OVCAR-4 ovarian was greater than 75 µM throughout. Besides, the TGI with A498 renal, in the assay with MOLT-4 leukemia, in the assay with SF-539 CNS, with UO-31 renal, with HCC-2998 colon and in the assay with DU-145 prostate was greater than 75 µM in each case. Also, the TGI in the assay on NCI-H226 lung, with ACHN renal, in the assay on PC-3 prostate, in the assay with M14 melanoma, in the assay on SK-MEL-2 melanoma and in the assay with SW-620 colon was greater than 75 µM each time. In the assay with SR leukemia, the TGI is greater than 75 µM.
As to `Cc1ccc(C)c(COCCOCn2c(=O)[nH]c(=O)c3cc(Br)ccc32)c1`, the TGI in the assay with MDA-MB-435, with SNB-75 CNS, in the assay on COLO 205 colon, in the assay on EKVX NSCLC, in the assay on OVCAR-4 ovarian and in the assay on A498 renal was greater than 100 µM each time. In addition, the TGI with MOLT-4 leukemia, in the assay with SF-539 CNS, in the assay with UO-31 renal, in the assay with HCC-2998 colon, in the assay on DU-145 prostate and with NCI-H226 lung was greater than 100 µM each time. Further, the TGI in the assay on ACHN renal, with PC-3 prostate, in the assay with M14 melanoma, in the assay on SK-MEL-2 melanoma, in the assay with SW-620 colon and with SR leukemia was greater than 100 µM each time.
As to `CC(=O)c1ccccc1NS(=O)(=O)c1ccc2nc(C)n(NS(=O)(=O)c3ccccc3C(C)=O)c(=O)c2c1`, the TGI in the assay with MDA-MB-435, in the assay on SNB-75 CNS, in the assay on COLO 205 colon, in the assay with EKVX NSCLC, in the assay with SK-MEL-5 melanoma and in the assay on OVCAR-4 ovarian was greater than 100 µM throughout. Moreover, the TGI in the assay with A498 renal, in the assay with MOLT-4 leukemia, with SF-539 CNS, with UO-31 renal, with HCC-2998 colon and in the assay with DU-145 prostate was greater than 100 µM in each case. In addition, the TGI with NCI-H226 lung, with ACHN renal, in the assay with PC-3 prostate, with M14 melanoma, in the assay with SK-MEL-2 melanoma and in the assay on SW-620 colon was greater than 100 µM throughout. The TGI in the assay on SR leukemia was greater than 100 µM.
Regarding `N#CCCN(CCC#N)c1ccc(C(N=Nc2ccc(Cl)cc2)=Nc2ccc(Cl)cc2)cc1`, the TGI was found to be 88.3 µM in the assay with MDA-MB-435; 45.6 µM with SNB-75 CNS; 31.9 µM in the assay with COLO 205 colon; 85.3 µM with EKVX NSCLC; 24.7 µM with SK-MEL-5 melanoma; 81.2 µM in the assay on OVCAR-4 ovarian. Moreover, the TGI was found to be 43.3 µM in the assay with A498 renal; 87.8 µM in the assay with MOLT-4 leukemia; 38.6 µM with SF-539 CNS; 29.4 µM in the assay on UO-31 renal; 27.1 µM in the assay with HCC-2998 colon; 30.3 µM in the assay on DU-145 prostate. In addition, the TGI in the assay on NCI-H226 lung came to 36.7 µM; in the assay with ACHN renal, 34 µM; with PC-3 prostate, 32.1 µM; in the assay on M14 melanoma, 58.7 µM; in the assay with SK-MEL-2 melanoma, 25 µM; in the assay on SW-620 colon, 34.3 µM. This compound also showed a TGI with SR leukemia greater than 100 µM.
For `Cc1nc2ccccc2c(=O)n1/N=C/c1ccc(N(C)C)cc1`, the TGI with MDA-MB-435 is greater than 100 µM; in the assay with SNB-75 CNS, 43.9 µM; in the assay with COLO 205 colon, greater than 100 µM; with EKVX NSCLC it was greater than 100 µM; in the assay with SK-MEL-5 melanoma it was greater than 100 µM; in the assay with OVCAR-4 ovarian it was greater than 100 µM. For the same compound, the TGI with A498 renal, in the assay with MOLT-4 leukemia, with SF-539 CNS, in the assay on HCC-2998 colon, with DU-145 prostate and in the assay on NCI-H226 lung was greater than 100 µM throughout. Further, the TGI in the assay on ACHN renal, in the assay on PC-3 prostate, in the assay on M14 melanoma, in the assay on SK-MEL-2 melanoma, in the assay on SW-620 colon and in the assay on SR leukemia was greater than 100 µM throughout.
